{"source": "paper PMC11079029", "about": "“Intramolecular autoinhibition regulates the selectivity of PRPF40A tandem WW domains for proline-rich motifs” (Nature Communications, 2024)", "key": {"PRPF40A Mut N-ExtWW12": {"target": "T1, PRPF40A Mut N-ExtWW12 (Homo sapiens, UniProt O75400, L125A/P123A/P126A/P127A/P78A/P79A/P81A/V80A)", "T1 construct": "WW12long 141–248, and N-ext-WW12 56–236; 6xHis-TEV site (N, cleaved yes); made in house; host or cells: Escherichia coli BL21(DE3)", "T1 sequence (O75400 56-236 P78A/P79A/V80A/P81A/P123A/L125A/P126A/P127A limits assumed)": "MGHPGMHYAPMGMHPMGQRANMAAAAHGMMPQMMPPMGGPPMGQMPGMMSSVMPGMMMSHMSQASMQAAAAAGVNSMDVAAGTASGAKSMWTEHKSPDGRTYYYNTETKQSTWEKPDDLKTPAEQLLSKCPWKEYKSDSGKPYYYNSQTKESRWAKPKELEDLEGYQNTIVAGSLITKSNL", "assay": "ITC of mutant N-ext-WW12 (PPVP/PALPP motifs changed to alanine) with SF1WWbs", "format": "binding", "excerpt": "While only partial backbone chemical shift assignments of this construct (69% completeness), N-ext-WW12, could be possible due to a highly repetitive sequence, a complete assignment of the methyl groups was achieved. We then performed a titration with the high-affinity peptide, SF1WWbs, by NMR. […] To further support this conclusion, we prepared a mutant version of the N-ext-WW12 construct, changing these two motifs to alanine residues, and observed clear shifting of NMR signals towards the free WW12 spectrum in the short version of the tandem. This corroborates that mainly these two proline-rich motifs govern the intramolecular interacting region (Supplementary Fig. 19).\nTo further confirm this analysis, we titrated SF1WWbs and the mutant version of the N-ext-WW12 construct (changing the PPVP/PALPP motifs for alanine residues).\nPRPF40A isoform 1 sequences (N-ter 1–310, WW12short 141–223, WW12 141–236, WW12long 141–248, and N-ext-WW12 56–236) were amplified from a purchased DNA fragment (IDT) and cloned using NcoI and KpnI restriction sites into a pETM11 vector encoding 6xHis and TEV cleavage site as a N-terminal tag. SF1 (Pro A 410–468, Pro B 468–539, Pro C 539–594, Pro D 594–639, Pro BC 468–594, Pro CD 539–639, Pro BCD 468–639 and Pro ABCD 410–639) and SF3A1 (Middle Pro 364–413 and C-ter Pro 552–683) constructs were prepared in a similar manner using a pET24 vector with a 6xHis, GB1 and TEV cleavage site as N-terminal fusion cassette. 16-mer SF1 constructs (Table 1) and polyproline peptides (P6, P8, P10, P13, P16, P19, P22, P25, and P29) were cloned in the same pET24 vector with GB1 tag by direct ligation of purchased oligonucleotides (Eurofins). All peptide sequences contained N and C-terminal common residues to avoid boundary effects on binding: TEVsite-GAMSGS-peptide-SGSN. Mutants of PRPF40A WW12 and N-ext-WW12 constructs were prepared by site-directed mutagenesis. The truncated version of PRPF40A WW12 (141-217) was a gift from Dr. María Macías (IRB, Spain). All used oligonucleotides were purchased from Eurofins Genomics and are shown in Supplementary Table 6.\nExperiments were conducted on a MicroCAl PEAQ-ITC (Malvern Instruments, UK) at 25 °C in 20 mM sodium phosphate pH 6.5 and 100 mM NaCl. PRPF40A was titrated into N-terminal GB1 tagged SF1 or polyproline constructs and vice versa with similar results. Protein concentrations in the cell were around 20–40 μM, while in the syringe ranged between 200 and 500 μM. Experiments were performed at least in duplicate with injections of 1.5 μL (0.4 μL for first point) separated by 150 s delays to recover thermal power baseline and continuous stirring in the cell (750 rpm) for correct mixing. The reference cell was filled with water in all experiments. Data were processed by removing the blank experiment (using digested GB1 fusion protein) and adjusted to one-site binding model with Malvern PEAQ-ITC Analysis software (Malvern Instruments, UK)."}, "PRPF40A WW12": {"system": "PRPF40A WW12", "assay": "NMR titration (1H-15N HSQC, chemical shift perturbation) of WW12 with polyproline or SF1 peptides", "format": "binding, human", "conditions": "15N-labelled WW12 around 100 μM, unlabelled GB1-tagged peptide, 25 °C", "experimental": "NMR samples were prepared at concentrations ranging 100–1000 μM in buffer containing 20 mM sodium phosphate pH 6.5, 100 mM NaCl, 1 mM DTT, and 10% or 100% D2O, and measured at 25 °C (except stated otherwise) in 900-, 800-, 600- and 500-MHz Bruker Avance III NMR spectrometers equipped with cryogenic triple resonance gradient probes. Topspin 4.1.0 (Bruker) software was used for NMR data acquisition. Spectra were processed with NMRpipe 8.9[76] and analyzed using ccpnNMR Analysis 2.5 software.\n^15N-labeled PRPF40A proteins (WW1, WW2, WW12, and N-extWW12) at around 100 μM concentration were titrated with increasing concentration ratios of polyproline or SF1 peptides (GB1 tagged) until reaching saturation, when possible; ^1H-^15N HSQC experiments and in some cases ^1H-^13C HSQC experiments (using double-labeled PRPF40A proteins) were acquired at each titration point. The chemical shift perturbation (CSP) was weighted using the Eqs. (1) and (2)[89].1 CSP(HN)=0.5⋅ΔδH2+0.14⋅ΔδN2 2 CSP(HC)=0.5⋅ΔδH2+0.3⋅ΔδC2"}}, "note": "Where two headings read alike, the source gives them in different places.", "data": [{"sequence": "PPLPPGAPPPPPPPPP [SF1WWbs]", "values": [{"measurement": "N (sites)", "setting": "PRPF40A Mut N-ExtWW12; ITC as E10", "result": "0.84 ± 0.05", "unit": "sites"}, {"measurement": "DH", "setting": "PRPF40A Mut N-ExtWW12; ITC binding enthalpy, as E10", "result": "-21 ± 2.2", "unit": "kcal/mol"}, {"measurement": "Kd (µM)", "setting": "PRPF40A Mut N-ExtWW12; ITC, 25 °C, 20 mM sodium phosphate pH 6.5, 100 mM NaCl, GB1-tagged SF1 16-mer, N-ext-WW12 with PPVP/PALPP changed to alanine, at least duplicates", "result": "comparable to the isolated WW tandem"}, {"measurement": "Kd", "setting": "PRPF40A Mut N-ExtWW12; ITC, 25 °C, 20 mM sodium phosphate pH 6.5, 100 mM NaCl, GB1-tagged SF1 16-mer, N-ext-WW12 with PPVP/PALPP changed to alanine, at least duplicates, read-out: Kd", "result": "2210 ± 240", "unit": "nM"}, {"measurement": "Kd", "setting": "PRPF40A Mut N-ExtWW12; ITC, individual value 1 (replicate 1), read-out: Kd Values with Nter Ext WW12 MUTANT, individual value", "result": 2440, "unit": "nM"}, {"measurement": "Kd", "setting": "PRPF40A Mut N-ExtWW12; ITC, individual value 2 (replicate 2), read-out: Kd Values with Nter Ext WW12 MUTANT, individual value", "result": 1980, "unit": "nM"}, {"measurement": "binding by NMR titration, exchange regime", "setting": "PRPF40A WW12", "result": "slow exchange regime"}]}]}
